Reference: patent US20240197759A1, “IMMUNE STIMULATING NANOPARTICLE COMPOSITION” (DANMARKS TEKNISKE UNIVERSITET, priority 2021, published 2024)

System: CT26 syngenic subcutaneous colon cancer model
Assay: Antitumor activity of MBS8 micelles in combination with doxorubicin or doxil in the CT26 model
Format: in vivo, mice
Conditions: mono chemotherapy 4 mg/kg i.v. q4d x3
Description: Randomisation of mice and treatment started when tumors reached an average volume of 100 mm^3 (Day 0). […] All drugs were administered by intravenous bolus. Doxorubicin or doxil were given q4d, total of 3 injections. […] Growth of tumors was measured twice a week.

How did the complete responders turn out when COc1cccc2c1C(=O)c1c(O)c3c(c(O)c1C2=O)C[C@@](O)(C(=O)CO)C[C@@H]3O[C@H]1C[C@H](N)[C@H](O)[C@H](C)O1 [doxorubicin] was run?
The complete responders was “no complete responders”.
